According to patent US6531468B2, “Diazabicyclooctane derivatives and therapeutic uses thereof” (Pfizer Inc, priority 2000, dated 2003):
Where a name gives a salt, the structure may show the parent alone.

melting point: 154 to 156 °C
SMILES: Fc1ccc(N2CC3CCC2CN3)cc1 (stereo not shown) (as salt: salt)
